Test results from patent publication US10028949B2, “Parenteral formulations of lipophilic pharmaceutical agents and methods for preparing and using the same” (priority 2011, dated 2018).
Like-named read-outs stand apart in the source and are kept apart here.

What was measured:
physchem = settings: thermodynamic from solid
[1] = cited from earlier work
[2] = cited from earlier work; for incidence of neurotoxicity, especially serious generalized seizure activity: after Bu-based conditioning therapy

SMILES: CS(=O)(=O)OCCCCOS(C)(=O)=O [Busulfan, 1,4-butanediol dimethanesulfonate]
- solubility at 60 minutes (physchem; aqueous buffer, Solubility (mg/mL), Solvent: HCl 6 N, room temperature): 700 µg/mL
- solubility at 60 minutes (physchem; aqueous with cosolvent or surfactant or cyclodextrin, Solubility (mg/mL), Solvent: PEG:water 1:1, room temperature): 250 µg/mL
- solubility at 60 minutes (physchem; aqueous with cosolvent or surfactant or cyclodextrin, Solubility (mg/mL), Solvent: PEG:water 1:2, room temperature): 190 µg/mL
- Solubility (physchem; organic solvent or mixture): 16400 µg/mL
- solubility at 60 minutes (physchem; organic solvent or mixture): ~16000 µg/mL
- solubility at 60 minutes (physchem; organic solvent or mixture, Solubility (mg/mL), Solvent: Acetic acid, room temperature): 3800 µg/mL
- solubility at 60 minutes (physchem; organic solvent or mixture, Solubility (mg/mL), Solvent: Ethanol, room temperature): 300 µg/mL
- solubility at 60 minutes (physchem; organic solvent or mixture, Solubility (mg/mL), Solvent: PEG (−400), room temperature): 200 µg/mL
- solubility at 60 minutes (physchem; organic solvent or mixture, Solubility (mg/mL), Solvent: Propylene glycol, room temperature): 200 µg/mL
- Solubility ([1]; Solvent: Acetone, in literature): ~25000 µg/mL
- Solubility (mg/mL) ([1]; Solvent: Water (The Merck Index)): Negligible (The Merck Index)
- incidence of neurotoxicity, especially serious generalized seizure activity ([2]; adults): ≤ 10%
- incidence of neurotoxicity, especially serious generalized seizure activity ([2]; children): approximately 7%
- EEG abnormalities, patients ([2]; without overt seizure activity): up to 60%
